From ChEMBL document CHEMBL5143698, “Phenotypic screen identifies FOXO inhibitor to counteract maturation and promote expansion of human iPS cell-derived cardiomyocytes” (Bioorg Med Chem, 2022) come the findings set out here.

A short description of data set [1]: Antiproliferative activity against human iPSC derived cardiomyocytes assessed as fold increase in cell number at 100 nM incubated for 4 days without passaging by Hoechst staining based analysis. The data set is classed as functional, iPSC-CM. The note with it: time 4 day.
The nature of data set [2]: Cytotoxicity against human iPSC derived cardiomyocytes at >=500 nM incubated for 4 days without passaging by Hoechst staining based analysis. The data set is classed as toxicity, cell-based. The settings on record: ipsc-cm, 96 h, 0.5 µM, time 4 day.
The next data set concerns the target Forkhead box protein O1 (Homo sapiens, UniProt Q12778). Briefly: Inhibition of FOXO-1 in human HepG2 cells incubated for 20 hrs by Renilla luciferase reporter gene assay. In kind it is cell-based. (In a reporter assay the amount or activity of a reporter protein is the signal.)
A short description of data set [3]: (§1) Antiproliferative activity against human iPSC derived cardiomyocytes assessed as increase in cell number by measuring fold change after 3 passages at 100 nM incubated for 2 days by Hoechst staining based analysis. The data set is classed as functional, iPSC-CM. The note with it: time 2 day.
For data set [4], the system named is iPSC-CM. The description is as §1. In kind it is functional. The settings on record: time 2.0 day.
The test system of data set [5] is iPSC-CM. Briefly: Upregulation of MYH6 gene expression in human iPSC derived cardiomyocytes at 100 nM incubated for 5 days by qRT-PCR analysis. In kind it is functional, cell-based. The settings on record: time 5.0 day. (Real-time PCR tracks product formation cycle by cycle.)
Data set [6] has as its system iPSC-CM. Briefly: Upregulation of TBX2 gene expression in human iPSC derived cardiomyocytes at 100 nM incubated for 5 days by qRT-PCR analysis. The data set is classed as functional, cell-based. The note with it: time 5.0 day.
Data set [7] has as its system iPSC-CM. Briefly: Upregulation of IRX4 gene expression in human iPSC derived cardiomyocytes aat 100 nM incubated for 5 days by qRT-PCR analysis. The data set is classed as functional, cell-based. The note with it: time 5.0 day.
Data set [8] relates to iPSC-CM. Briefly: Downregulation of MYH7 gene expression in human iPSC derived cardiomyocytes measured after two passages following incubation for 5 days by qRT PCR analysis. The data set is classed as functional, cell-based. The note with it: dose 3-100 nM, time 5.0 day, DDE = dose-dependent effect.
For data set [9], the system named is iPSC-CM. Nature of the data set: Downregulation of MYL2 gene expression in human iPSC derived cardiomyocytes measured after two passages following incubation for 5 days by qRT PCR analysis. In kind it is functional, cell-based. The note with it: dose 3-100 nM, time 5.0 day, DDE = dose-dependent effect.
Data set [10] has as its system iPSC-CM. Briefly: Downregulation of NPPA gene expression in human iPSC derived cardiomyocytes measured after two passages following incubation for 5 days by qRT PCR analysis. In kind it is functional, cell-based. The settings on record: dose 3-100 nM, time 5.0 day, DDE = dose-dependent effect.
Data set [11] deals with iPSC-CM. Nature of the data set: Downregulation of MLC2v protein level in human iPSC derived cardiomyocytes at 100 nM incubated for 3 weeks by immunofluorescence assay. The data set is classed as functional, cell-based.
The test system of data set [12] is iPSC-CM. Nature of the data set: Downregulation of ANP protein level in human iPSC derived cardiomyocytes at 100 nM incubated for 3 weeks by immunofluorescence assay. In kind it is functional, cell-based.
Data set [13] concerns iPSC-CM. Briefly: Downregulation of MYH7 gene expression in human iPSC derived cardiomyocytes at 100 nM incubated for 5 days by qRT-PCR analysis. The settings on record: time 5.0 day. The data set is classed as functional, cell-based.
For data set [14], the system named is iPSC-CM. Nature of the data set: Downregulation of MYL2 gene expression in human iPSC derived cardiomyocytes at 100 nM incubated for 5 days by qRT-PCR analysis. In kind it is functional, cell-based. The note with it: time 5.0 day.
Data set [15] deals with iPSC-CM. Nature of the data set: Downregulation of NPPA gene expression in human iPSC derived cardiomyocytes at 100 nM incubated for 5 days by qRT-PCR analysis. The data set is classed as functional, cell-based. The settings on record: time 5.0 day.

Activity calls are given as the source filed them. The rule behind the calls is not given here. Bounds are passed on as bounds.

Forkhead box protein O1, sequence (Q12778 whole entry): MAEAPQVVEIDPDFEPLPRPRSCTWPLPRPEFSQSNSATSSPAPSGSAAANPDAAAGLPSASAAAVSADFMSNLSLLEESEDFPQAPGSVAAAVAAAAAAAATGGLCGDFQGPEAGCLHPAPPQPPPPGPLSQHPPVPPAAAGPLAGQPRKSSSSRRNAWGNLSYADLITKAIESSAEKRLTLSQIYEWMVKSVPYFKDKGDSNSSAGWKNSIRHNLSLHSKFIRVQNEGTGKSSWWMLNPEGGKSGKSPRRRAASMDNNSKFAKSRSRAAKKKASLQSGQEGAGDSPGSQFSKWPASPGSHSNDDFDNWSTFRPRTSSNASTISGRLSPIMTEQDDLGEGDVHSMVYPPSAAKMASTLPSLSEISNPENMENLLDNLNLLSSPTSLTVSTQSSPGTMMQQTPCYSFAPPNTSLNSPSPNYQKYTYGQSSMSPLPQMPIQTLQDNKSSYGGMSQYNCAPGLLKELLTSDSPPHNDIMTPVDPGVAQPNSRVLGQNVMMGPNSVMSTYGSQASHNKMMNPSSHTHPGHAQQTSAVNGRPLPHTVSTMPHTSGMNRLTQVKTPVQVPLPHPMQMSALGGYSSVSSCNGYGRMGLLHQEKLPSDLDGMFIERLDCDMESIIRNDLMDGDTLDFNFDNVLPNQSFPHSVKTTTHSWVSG

On to `CCn1cc(C(=O)O)c(=O)c2c(N)c(F)c(NC3CCCCC3)cc21`, for which the figures for the “fold change (FC)” value in data set [1] and in data set [3] were >3 and >30, respectively. In addition, the Activity entry in [2] is “Toxic”; in the data set with iPSC-CM [8], “Dde”; in the data set with iPSC-CM [9] it was “Dde”; in the data set on iPSC-CM [10], “Dde”. Also, the IC50 against Forkhead box protein O1 worked out at 0.033 µM. The result in the data set on iPSC-CM [4], in the data set with iPSC-CM [5], in the data set on iPSC-CM [6], in the data set with iPSC-CM [7], with iPSC-CM [11] and in the data set on iPSC-CM [12] was Active. Further, the result in the data set with iPSC-CM [13], with iPSC-CM [14] and in the data set on iPSC-CM [15] was Active.

A word on the IC50: it is the concentration that gives 50% inhibition. Read a low IC50 as greater potency.
